Test results as given in US6933285B2, “Flavin N-oxides: new anti-cancer agents and pathogen eradication agents” (The Ohio State University, priority 2002, dated 2005).

Columns and labels:
[1] = test system: PA-Lymphoblastoid Cell Line; assay: PA-Lymphoblastoid cell viability under oxygen deprivation in the presence of sensitizers; assay type: cell-based; conditions: PA-Lymphoblastoid cells; for cell count at Time (hour) 0 / cell count at Time (hour) 4 / cell count at Time (hour) 20: solutions and cells bubbled with nitrogen 15 minutes; for cell count at Time (hour) 0: time 0 hour; for cell count at Time (hour) 4: time 4 hour; for cell count at Time (hour) 20: time 20 hour
Protocol: PA-Lymphoblastoid Cell Line: Study of the effect of oxygen deprivation in the presence of 3 sensitizers Six solutions were prepared having the solutions and the cells from each of the 6 sets were “bubbled” with nitrogen separately for 15 minutes before being mixed.
The results of this study are shown graphically in FIG. 5.

Water solubility = assay type: physicochemical
Description: Riboflavin N-oxide, is one example of a flavin N-oxide, it is water soluble and electrically neutral. Additionally, upon fragmentation of the neutral radical, riboflavin N-oxide forms the hydroxyl radical, which damages the nucleic acid, and riboflavin, vitamin B2, which is generally regarded as safe in humans.
In the methods of the present invention, the flavin N-oxides are introduced to the composition containing the blood products. It is preferred that the flavin N-oxides of the present invention are water-soluble. By “water soluble” we mean that it is preferred that the solubility of the flavin N-oxides is at least 100 micromolar in water. An exemplary flavin N-oxide for the methods of the present invention is riboflavin N-oxide. Once introduced to the blood product composition, riboflavin N-oxide, which is electrically neutral, may passively transport into cells, where it is enzymatically activated to form a radical anion. Additionally, riboflavin N-oxide may be activated by electromagnetic radiation. When electromagnetic radiation is used as the activator, the wavelength of light is preferably in the visible region.

[2] = test system: non-enveloped parvoviruses; conditions: cited from earlier work
bacteriophage Φ6 = conditions: platelet concentrates, normal oxygen tension, UVA; cited from earlier work

Row | water solubility (Water solubility) | SMILES | hypoxic toxicity ([1]; oxygen deprivation) | cell count at Time (hour) 0 [1] [million cells/mL] | cell count at Time (hour) 4 [1] [million cells/mL] | cell count at Time (hour) 20 [1] [million cells/mL] | potency towards the non-enveloped parvoviruses [2] | inactivation of the virus bacteriophage Φ6 (bacteriophage Φ6)
1 | water soluble | Cc1cc2c(cc1C)[n+]([O-])c1c(=O)[nH]c(=O)nc-1n2CC(O)C(O)C(O)CO (centres unmarked) [RBO, riboflavin N-oxide] | high hypoxic toxicity | 0.45 | 0.46 | 0.06 | – | –
2 | – | Cc1oc2c(C)c3oc(=O)cc(C)c3cc2c1CN [AMT] | – | – | – | – | limited potency | completely inactivate
3 | – | Nc1n[n+]([O-])c2ccccc2[n+]1[O-] [Tirapazamine (TPZ), Tirapazamine] | – | 0.4 | 0.4 | 0.36 | – | –
4 | – | Cc1cc2nc3c(=O)[nH]c(=O)nc-3n(C[C@H](O)[C@H](O)[C@H](O)CO)c2cc1C [Riboflavin (RB), Riboflavin] | – | 1 | 0.9 | 0.63 | – | –
5 | – | COc1c2occc2cc2ccc(=O)oc12 [8-MOP] | – | – | – | – | – | completely inactivate
